{
  "source": "patent US20240082238A1",
  "about": "“COMPOSITIONS AND METHODS FOR TREATING CANCER” (UNIVERSITY OF IOWA RESEARCH FOUNDATION, priority 2021, published 2024)",
  "key": {"[1]": {"tested_on": "Hec50co tumors", "assay": "In vivo tumor accumulation of PTX-OG after peritumoral SC injection", "design": "species or system athymic Nu/Nu mice", "conditions": "0.1 mg/kg PTX-OG SC peritumoral, 24 h", "protocol": "Effect of drug combination on the in vivo tumor accumulation of PTX In this study, athymic Nu/Nu mice were challenged with 1×10^6 of Hec50co tumor cells per mouse on day zero of the experiment. When the tumor grew to a palpable size range of 100-150 mm^3, as measured by Equation 2, treatments were administered SC at the tumor site (peritumoral). Treatment groups (n=3 per group) included: (i) DPBS treated mice, 0.1 mg/kg PTX-OG, and 0.1 mg/kg PTX-OG+5 mg/kg CIP2b. After 24 hours, mice were euthanized, and tumors were collected and submerged in Hank's Balanced Salt Solution (HBSS) with calcium and magnesium. Tumors were then taken out of HBSS (one at a time to maintain cell viability), placed on a Petri dish, and mechanically minced with a sterile scalpel and forceps into small pieces. Tumor pieces were transferred to 50 mL tubes containing 10 mL of the pre-warmed (37° C.) sterile cell dissociation buffer (HBSS containing 50,000 U of collagenase IV and 100,000 U of DNase I). Samples were incubated at 37° C. under continuous rotation at 300 rpm for 60 minutes in the incubator-shaker. Then, cell suspensions were filtered through a 70 μm cell strainer then a 40 μm cell strainer to remove any aggregates. […] Finally, cell suspensions were acquired using a FACSCalibur flow cytometer, and data were analyzed using FlowJo software."}, "[2]": {"tested_on": "caspase 9", "assay": "Caspase multiplex activity assay, caspase 9", "type": "cell-based, human", "conditions": "24 h", "protocol": "Apoptosis and caspase activity. The expression of caspase 3, 8, and 9 was measured using Multiplex Activity Assay Fluorometric Kit (Cat. No. ab219915, Abcam). Briefly, Hec50co cells were plated in 96-well plates at a density of 3000 per well in 100 μL of the complete medium and incubated for 24 hours. After incubation, the medium was removed, and different concentrations either in single or combination of treatments were added (PTX 5 and 10 nM; CIP2b 10, 25, and 50 μM). Cells with treatments were incubated for 24 or 72 hours. Then, the caspase kit reagents were added to the cells and incubated at room temperature for 60 minutes. Fluorescence intensity (at excitation/emission values of 535/620 nm, 490/525 nm, and 370/450 nm for caspase 3, 8, and 9, respectively) was then measured using a SpectraMax M5 microplate reader (Molecular Devices)."}, "[3]": {"target": "T1, human Topo I (Homo sapiens, UniProt P11387)", "T1 construct": "purchased TopoGEN Inc. TG1015-1A", "T1 sequence (P11387 1-765)": "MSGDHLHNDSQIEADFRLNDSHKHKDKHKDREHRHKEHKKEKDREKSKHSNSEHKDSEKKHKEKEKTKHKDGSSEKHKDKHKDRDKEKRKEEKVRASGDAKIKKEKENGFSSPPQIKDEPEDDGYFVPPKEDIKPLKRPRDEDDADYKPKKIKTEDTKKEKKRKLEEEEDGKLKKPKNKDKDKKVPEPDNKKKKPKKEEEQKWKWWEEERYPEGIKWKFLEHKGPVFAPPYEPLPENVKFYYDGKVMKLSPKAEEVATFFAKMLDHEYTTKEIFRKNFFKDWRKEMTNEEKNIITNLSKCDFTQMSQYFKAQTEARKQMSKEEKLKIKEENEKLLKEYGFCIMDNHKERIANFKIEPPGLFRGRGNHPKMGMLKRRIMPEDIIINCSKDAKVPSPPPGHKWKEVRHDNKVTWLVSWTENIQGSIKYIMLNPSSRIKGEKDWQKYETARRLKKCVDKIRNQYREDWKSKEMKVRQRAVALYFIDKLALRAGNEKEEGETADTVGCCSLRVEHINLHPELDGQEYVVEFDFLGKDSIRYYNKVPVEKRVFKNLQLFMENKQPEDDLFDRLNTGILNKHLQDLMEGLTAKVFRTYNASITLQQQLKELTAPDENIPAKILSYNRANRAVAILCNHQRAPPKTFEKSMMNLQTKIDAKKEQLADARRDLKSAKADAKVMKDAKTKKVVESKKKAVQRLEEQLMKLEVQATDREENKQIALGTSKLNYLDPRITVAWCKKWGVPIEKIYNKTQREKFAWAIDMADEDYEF", "assay": "Topoisomerase I inhibition assay (plasmid-based)", "type": "biochemical", "conditions": "drug final concentration 100 μM", "protocol": "Topoisomerase I inhibition assay. A plasmid-based Topo I assay (Cat. No. TG1015-1A, TopoGEN Inc., Buena Vista, CO) was performed according to the manufacturer's instructions. Briefly, 1 μL of the test compounds (PTX, CIP, CIP2b, or CAM) at a concentration of 2 mM, was mixed with 2 μL of the reaction buffer (10× tris-glycine-SDS), and deionized water was added to make 18 μL solution. This was followed by adding 1 μL of supercoiled DNA (SC DNA) and 1 μL of human Topo I (10 U/μL) (drug final concentration was 100 μM). Also, SC DNA±Topo I was used as a control (i.e., not containing drugs). In addition, relaxed DNA was added as another control in this assay. Samples were incubated on a heating block (Isotemp 125 D Digital Heat Block, ThermoFisher Scientific) set at 37° C. for 30 minutes. Then, the reaction was stopped by adding a 5× stop buffer. Samples were then loaded directly into the wells of a 1% agarose gel (Research Products International, Mount Prospect, IL). The gel was run at 150 V until the dye front had traveled approximately 5 cm (run time was approximately 2 hours). The gel was then stained with 1 μg/mL ethidium bromide in deionized water for 15 minutes, and this was followed by de-staining (washing) with deionized water for 30 min before imaging. The image was then taken using an Invitrogen iBright CL 1500 Imaging System (ThermoFisher Scientific). The intensity of the final bands in the gel was quantified using ImageJ, and the results are expressed as the percentage of Topo I inhibition."}},
  "data": [
    {"molecule": "CC(=O)O[C@H]1C(=O)[C@@]2(C)[C@H]([C@H](OC(=O)c3ccccc3)[C@]3(O)C[C@H](OC(=O)[C@H](O)[C@@H](NC(=O)c4ccccc4)c4ccccc4)C(C)=C1C3(C)C)[C@]1(OC(C)=O)CO[C@@H]1C[C@@H]2O", "note": "[PTX, paclitaxel]", "values": [
      {"measurement": "in vivo intracellular accumulation of PTX-OG by tumor cells vs untreated control", "setting": "[1]", "value": "marginal in vivo intracellular accumulation"},
      {"measurement": "expression of caspase 9 vs untreated", "setting": "[2]; 5 nM PTX", "value": "not statistically different from untreated cells"},
      {"measurement": "level of caspase 9 expression vs untreated", "setting": "[2]; 10 nM PTX", "value": "significantly higher"},
      {"measurement": "Topo I inhibitory activity (gel)", "setting": "[3]", "value": "neither PTX nor CIP did inhibit Topo I"}
    ]}
  ]
}
